According to publication PMC11876601 (Molecular Systems Biology, 2025):
Read-outs that look alike come from different tables or passages of the source.

Test system: AsPC-1 cells
Experiment: Drug combination viability screen (ATPlite, 72 h);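 as to AUC: area under vehicle-normalized viability curve scaled 0 to 100 percent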;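 as to Curve bottom: fraction of vehicle control viability from four-parameter log-logistic fit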
Assay type: cell-based, human
Parameters: key to AUC: AUC of dose-response curve; AUC∆ = AUChypothetical − AUCexperimental; Curve top / Curve bottom / Curve effect size: scale not given here
Conditions: for EC50: Homo sapiens; for Library drug only (ratio): cell viability (library drug/vehicle); for Library drug + GEM low (ratio) / Library drug + GEM high (ratio): cell viability vs vehicle; for Bliss_Library drug + GEM low (ratio) / Bliss_Library drug + GEM high (ratio): hypothetical viability, Bliss model
Protocol: Cell viability was assessed by measuring ATP levels to indicate metabolic activity.
Afterward, small amounts were transferred to 384-well intermediate plates (Greiner Bio-One GmbH, Germany). […] For drug combination screening, 1000 to 5000 cells were seeded into 384-well plates (CulturPlate™, Perkin Elmer, MA, USA) using a Multidrop™ Combi Reagent Dispenser (Thermo Scientific, MA, USA) in 50 µl medium per well 24 h prior to drug treatment (seeding densities see Appendix Table S1). […] The final DMSO concentration in each well was 0.2%. […] Eight wells per plate without library drug served as negative controls, and sixteen wells per plate containing 5 µM Staurosporine served as positive controls. Control plates not containing any drug were used to correct for incubation effects, and data quality was assessed by calculation of Z-prime of positive and negative controls according to1 Z-prime=1−3SDpos+3SDneg/[…] where SD is the standard deviation. […] Dose–response curves from the experimental and hypothetical data were compared, and shifts in AUC were used to describe combination effects (AUC∆ = AUChypothetical − AUCexperimental). […] Only combinations with R^2 > 0.8 in both conditions were considered in the synergy analysis.

[1] = ASPC1, read-out: pEC50 (converted)
[2] = AsPC-1, GEM high_Bliss (hypothetical data)
[3] = AsPC-1, GEM low_Bliss (hypothetical data)
[4] = AsPC-1, library drug 123.46 nM + GEM 10 nM
[5] = AsPC-1, library drug 123.46 nM + GEM 30 nM
[6] = AsPC-1, library drug 370.37 nM + GEM 10 nM
[7] = AsPC-1, library drug 370.37 nM + GEM 30 nM
[8] = AsPC-1, library drug 1111.11 nM + GEM 10 nM
[9] = AsPC-1, library drug 1111.11 nM + GEM 30 nM
[10] = AsPC-1, library drug 3333.33 nM + GEM 10 nM
[11] = AsPC-1, library drug 3333.33 nM + GEM 30 nM
[12] = AsPC-1, library drug 10000 nM + GEM 10 nM
[13] = AsPC-1, library drug 10000 nM + GEM 30 nM

`Nc1ccn([C@@H]2O[C@H](CO)[C@@H](O)C2(F)F)c(=O)n1` [GEM, Gemcitabine] was tested, and the Reponse (AsPC-1, R1, 13.72 nM) was 1567840, the Reponse (AsPC-1, R1, 41.15 nM) was 1226120 and the Reponse (AsPC-1, R1, 123.46 nM) was 1025760. The Reponse (AsPC-1, R1, 370.37 nM) was 921880, the Reponse (AsPC-1, R1, 1111.11 nM) was 872680 and the Reponse (AsPC-1, R1, 3333.33 nM) was 849760. For the same compound, the Reponse (AsPC-1, R1, 10000 nM) was 784080, the Reponse (AsPC-1, R2, 13.72 nM) was 1654800 and the Reponse (AsPC-1, R2, 41.15 nM) was 1220360. The Reponse (AsPC-1, R2, 123.46 nM) was 984000, the Reponse (AsPC-1, R2, 370.37 nM) was 972200 and the Reponse (AsPC-1, R2, 1111.11 nM) was 963400. For the same compound, the Reponse (AsPC-1, R2, 10000 nM) was 773560, the AUC (AsPC-1, GEM curve fit) was 70.34 and the Curve bottom (AsPC-1, GEM curve fit) was 0.46. For the same compound, the Curve effect size (AsPC-1, GEM curve fit) was 0.55, the Curve slope (AsPC-1, GEM curve fit) was 1.15 and the Curve top (AsPC-1, GEM curve fit) was 1.04. The “GEM low only (raw)” value (AsPC-1, luminescence signal, plate mean, GEM 10 nM) was 1700020, the “GEM high only (raw)” value (AsPC-1, luminescence signal, plate mean, GEM 30 nM) was 1564215 and the EC50 (ASPC1, read-out: EC50,GEM) was no less than 10 nM. The EC50 (ASPC1, read-out: EC50) was 27.1 nM and the EC50 [1] was 26.9 nM.
In the case of `CCN1CCN(Cc2ccc(Nc3ncc(F)c(-c4cc(F)c5nc(C)n(C(C)C)c5c4)n3)nc2)CC1` [Abemaciclib], the AUC (AsPC-1, GEM high) is reported as 87.77%, the Curve bottom (AsPC-1, GEM high) is reported as 0.63 and the Curve effect size (AsPC-1, GEM high) is reported as 0.23. The Curve slope (AsPC-1, GEM high) was 0.52, the Curve top (AsPC-1, GEM high) was 0.85 and the AUC [2] was 82.66%. It also gave a Curve bottom [2] of -0.27, a Curve effect size [2] of 0.57 and a Curve slope [2] of 0.36. For the same compound, the Curve top [2] was 0.8, the AUC (AsPC-1, GEM low) was 89.92% and the Curve bottom (AsPC-1, GEM low) was 0.62. For the same compound, the Curve effect size (AsPC-1, GEM low) was 0.28, the Curve slope (AsPC-1, GEM low) was 1.21 and the Curve top (AsPC-1, GEM low) was 0.86. It also gave an AUC [3] of 82.59%, a Curve bottom [3] of -0.23 and a Curve effect size [3] of 0.57. For the same compound, the Curve slope [3] was 0.36, the Curve top [3] was 0.87 and the “Library drug only (ratio)” value (AsPC-1, library drug 123.46 nM) was 0.76. For the same compound, the “Library drug only (ratio)” value (AsPC-1, library drug 370.37 nM) was 0.72, the “Library drug only (ratio)” value (AsPC-1, library drug 1111.11 nM) was 0.63 and the “Library drug only (ratio)” value (AsPC-1, library drug 3333.33 nM) was 0.64. The “Library drug only (ratio)” value (AsPC-1, library drug 10000 nM) was 0.33, the “Library drug + GEM low (ratio)” value [4] was 0.80 and the “Library drug + GEM high (ratio)” value [5] was 0.73. For the same compound, the “Library drug + GEM low (ratio)” value [6] was 0.68, the “Library drug + GEM high (ratio)” value [7] was 0.65 and the “Library drug + GEM low (ratio)” value [8] was 0.63. For the same compound, the “Library drug + GEM high (ratio)” value [9] was 0.65, the “Library drug + GEM low (ratio)” value [10] was 0.67 and the “Library drug + GEM high (ratio)” value [11] was 0.67. For the same compound, the “Library drug + GEM low (ratio)” value [12] was 0.59, the “Library drug + GEM high (ratio)” value [13] was 0.64 and the “Bliss_Library drug + GEM low (ratio)” value [4] was 0.69. For the same compound, the “Bliss_Library drug + GEM high (ratio)” value [5] was 0.63, the “Bliss_Library drug + GEM low (ratio)” value [6] was 0.65 and the “Bliss_Library drug + GEM high (ratio)” value [7] was 0.60. For the same compound, the “Bliss_Library drug + GEM low (ratio)” value [8] was 0.57, the “Bliss_Library drug + GEM high (ratio)” value [9] was 0.52 and the “Bliss_Library drug + GEM low (ratio)” value [10] was 0.58. The “Bliss_Library drug + GEM high (ratio)” value [11] was 0.53, the “Bliss_Library drug + GEM low (ratio)” value [12] was 0.30 and the “Bliss_Library drug + GEM high (ratio)” value [13] was 0.27. For the same compound, the “Library drug only (raw)” value (AsPC-1, luminescence signal, library drug 123.46 nM) was 1429160, the “Library drug + GEM low (raw)” value (AsPC-1, luminescence signal, library drug 123.46 nM + GEM 10 nM) was 1506080 and the “Library drug + GEM high (raw)” value (AsPC-1, luminescence signal, library drug 123.46 nM + GEM 30 nM) was 1369120. The “Library drug only (raw)” value (AsPC-1, luminescence signal, library drug 370.37 nM) was 1356440, the “Library drug + GEM low (raw)” value (AsPC-1, luminescence signal, library drug 370.37 nM + GEM 10 nM) was 1276520 and the “Library drug + GEM high (raw)” value (AsPC-1, luminescence signal, library drug 370.37 nM + GEM 30 nM) was 1223760. The “Library drug only (raw)” value (AsPC-1, luminescence signal, library drug 1111.11 nM) was 1177560, the “Library drug + GEM low (raw)” value (AsPC-1, luminescence signal, library drug 1111.11 nM + GEM 10 nM) was 1187000 and the “Library drug + GEM high (raw)” value (AsPC-1, luminescence signal, library drug 1111.11 nM + GEM 30 nM) was 1214720. The “Library drug only (raw)” value (AsPC-1, luminescence signal, library drug 3333.33 nM) was 1196040, the “Library drug + GEM low (raw)” value (AsPC-1, luminescence signal, library drug 3333.33 nM + GEM 10 nM) was 1253360 and the “Library drug + GEM high (raw)” value (AsPC-1, luminescence signal, library drug 3333.33 nM + GEM 30 nM) was 1251960. For the same compound, the “Library drug only (raw)” value (AsPC-1, luminescence signal, library drug 10000 nM) was 618520, the “Library drug + GEM low (raw)” value (AsPC-1, luminescence signal, library drug 10000 nM + GEM 10 nM) was 1109040 and the “Library drug + GEM high (raw)” value (AsPC-1, luminescence signal, library drug 10000 nM + GEM 30 nM) was 1201080. For the same compound, the AUC (AsPC-1, no GEM (single drug)) was 82.59%, the Curve bottom (AsPC-1, no GEM (single drug)) was -0.27 and the Curve effect size (AsPC-1, no GEM (single drug)) was 0.57. The Curve slope (AsPC-1, no GEM (single drug)) was 0.36, the Curve top (AsPC-1, no GEM (single drug)) was 0.97 and the EC50 (ASPC1, read-out: EC50) was 16500 nM. It also gave an EC50 [1] of 16600 nM.
